Common to all, as to type: functional
For experiment [1], the system named is Clostridium perfringens. The experiment in a line: Antimicrobial activity against Clostridium perfringens LFM1 assessed as resistance breakpoint by DIN-standardized microdilution method. For orientation: Dilution methods test growth across graded concentrations, often in twofold steps.
The subject of experiment [2] is Clostridium perfringens. The experiment is described as follows: Antimicrobial activity against Clostridium perfringens LFM1 assessed as resistance breakpoint by DANMAP method.
For experiment [3], the system named is Clostridium perfringens. The experiment in a line: Antimicrobial activity against Clostridium perfringens LFM1 assessed as resistant breakpoint by EUCAST method.

Each structure is given as a SMILES string. Active and inactive are the calls of the source. The calls are words filed in the database; no cut-off is given here.

Regarding `CCC[C@@H]1C[C@@H](C(=O)N[C@@H]([C@H]2O[C@H](SC)[C@H](O)[C@@H](O)[C@H]2O)[C@H](C)Cl)N(C)C1`, the result in the experiment with Clostridium perfringens [1] was inactive.

Take `CC[C@H]1OC(=O)[C@H](C)[C@@H](O[C@H]2C[C@@](C)(OC)[C@@H](O)[C@H](C)O2)[C@H](C)[C@@H](O[C@@H]2O[C@H](C)C[C@H](N(C)C)[C@H]2O)[C@](C)(O)C[C@@H](C)C(=O)[C@H](C)[C@@H](O)[C@]1(C)O`: the result in the experiment with Clostridium perfringens [1] was inactive.

For the compound `O=C(N[C@H](CO)[C@H](O)c1ccc([N+](=O)[O-])cc1)C(Cl)Cl`, the outcome in the experiment on Clostridium perfringens [2] was inactive.

Regarding `CS(=O)(=O)c1ccc([C@@H](O)[C@@H](CF)NC(=O)C(Cl)Cl)cc1` [FLORFENICOL], the result with Clostridium perfringens [2] was inactive.

Regarding `CC(=O)NC[C@H]1CN(c2ccc(N3CCOCC3)c(F)c2)C(=O)O1` [LINEZOLID], the Activity in the experiment on Clostridium perfringens [1], in the experiment on Clostridium perfringens [2] and in the experiment on Clostridium perfringens [3] (record 2) was greater than 4 mg/L each time. Besides, the result in the experiment with Clostridium perfringens [3] was inactive.
